Test results reported in US11780845B2 (Relay Therapeutics, Inc., priority 2019, dated 2023).

Tests used:
SNU-16 = assay: Cell SNU-16 assay; assay type: cell-based
FGFR2 = FGFR2 (Homo sapiens (Human), UniProt P21802); assay: Biochemical FGFR2 Caliper assay
[1] = Homo sapiens, SNU-16, SNU-16 cells

FGFR2, sequence (P21802 22-821): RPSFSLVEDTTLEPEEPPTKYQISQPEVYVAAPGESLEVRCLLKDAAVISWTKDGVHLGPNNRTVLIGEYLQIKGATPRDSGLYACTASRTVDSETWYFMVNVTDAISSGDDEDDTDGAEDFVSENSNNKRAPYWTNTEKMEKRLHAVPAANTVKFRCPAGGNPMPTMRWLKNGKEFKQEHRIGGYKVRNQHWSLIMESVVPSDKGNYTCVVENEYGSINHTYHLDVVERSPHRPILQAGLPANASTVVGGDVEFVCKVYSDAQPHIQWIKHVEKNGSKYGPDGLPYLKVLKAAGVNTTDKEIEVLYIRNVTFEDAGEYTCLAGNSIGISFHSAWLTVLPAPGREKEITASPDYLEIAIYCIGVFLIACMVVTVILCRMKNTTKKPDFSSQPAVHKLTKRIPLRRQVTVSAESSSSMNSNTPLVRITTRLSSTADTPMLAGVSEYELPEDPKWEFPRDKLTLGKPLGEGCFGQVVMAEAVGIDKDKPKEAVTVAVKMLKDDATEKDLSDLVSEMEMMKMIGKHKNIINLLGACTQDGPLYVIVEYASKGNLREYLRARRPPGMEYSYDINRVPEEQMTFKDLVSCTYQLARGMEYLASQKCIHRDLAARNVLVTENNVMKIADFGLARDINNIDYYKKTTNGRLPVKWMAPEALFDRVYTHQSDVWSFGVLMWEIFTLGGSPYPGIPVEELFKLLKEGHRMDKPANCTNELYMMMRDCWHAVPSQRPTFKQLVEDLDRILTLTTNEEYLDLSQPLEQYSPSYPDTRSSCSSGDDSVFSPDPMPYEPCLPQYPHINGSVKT

Q: For Cn1c(C2CCN(C#N)C2)c(-c2ccc(C(=O)N3CCCC3)cc2)c2c(N)ncnc21 (stereo not shown) [Example 858], which IC50 (SNU-16; [1]) is on record?
A: ≤ 0.1 µM

Q: What about the IC50 (FGFR2) of the same compound?
A: < 0.1 µM

Q: What does the source list for C=CS(=O)(=O)N1CCC(c2c(-c3ccc(C(=O)N4CCCC4)cc3)c3c(N)ncnc3n2C)C1 (stereo not shown) [Example 859]?
A: IC50 (SNU-16; [1]): 1 to 100 µM; IC50 (FGFR2): 1 to 100 µM

Q: C=C(C)C(=O)Nc1ccc(-c2nn3ccnc(N)c3c2-c2ccc(C(=O)N3CCCC3)cc2)cc1 [Example 862] was tested. Which IC50 (SNU-16; [1]) did it give?
A: 1 to 100 µM

Q: And the IC50 (FGFR2)?
A: 1 to 100 µM

Q: For C=C(C)C(=O)Nc1cc(-c2c(-c3ccc(C(=O)N4CCCC4)cc3)c3c(N)ncnc3n2C)n(C)n1 [Example 865], which IC50 (SNU-16; SNU-16 cells) is on record?
A: 0.25 to 1 µM

Q: What about the IC50 (FGFR2) of the same compound?
A: 0.1 to 0.25 µM

Q: Which results are given for C=C(C)C(=O)Nc1cc(-c2c(-c3ccc(C(=O)N4CCCC4)cc3)c3c(N)ncnc3n2C)n(C)n1 [Example 866]?
A: IC50 (SNU-16; SNU-16 cells): ≤ 0.1 µM; IC50 (FGFR2): < 0.1 µM

Q: What does the source list for C=C(C)C(=O)Nc1ccc(-c2nn3ccnc(N)c3c2C2=CCC(C(=O)N3CCCC3)CC2)cc1 (stereo not shown) [Example 868]?
A: IC50 (SNU-16; [1]): 1 to 100 µM; IC50 (FGFR2): 1 to 100 µM

Q: Which results are given for C=C(C)C(=O)Nc1ccc(-c2c(-c3ccc(C(=O)N4CCCC4)cc3)c3c(N)n[nH]c(=O)c3n2C)cc1 [Example 870]?
A: IC50 (SNU-16; SNU-16 cells): 0.1 to 0.25 µM; IC50 (FGFR2): 1 to 100 µM

Q: For C=Cc1ncc(-c2c(-c3ccc(Oc4nccc(C)n4)cc3)c3c(N)ncnc3n2C)cn1 [Example 877], which IC50 (SNU-16; [1]) is on record?
A: 0.25 to 1 µM

Q: What about the IC50 (FGFR2) of the same compound?
A: 0.1 to 0.25 µM

Q: For C=C(C)C(=O)Nc1ccc(-c2c(-c3ccc(C(=O)N4CCCC4)cc3)c3c(N)nn(C)c(=O)c3n2C)cc1 [Example 878], which IC50 (SNU-16; [1]) is on record?
A: ≤ 0.1 µM

Q: And the IC50 (FGFR2)?
A: 0.1 to 0.25 µM

Q: For C=C(C)C(=O)Nc1ccc(-c2c(-c3ccc(C(=O)N4CCCC4)cc3)c3c(N)n[nH]c(=O)c3n2C)cc1 [Example 879], which IC50 (SNU-16; SNU-16 cells) is on record?
A: 1 to 100 µM

Q: And the IC50 (FGFR2)?
A: 1 to 100 µM

Q: For C=C(C)C(=O)N[C@H]1C[C@H](c2c(-c3ccc(C(=O)N4CCCC4)cc3)c3c(N)ncnc3n2C)C1 [Example 880], which IC50 (SNU-16; [1]) is on record?
A: 1 to 100 µM

Q: And the IC50 (FGFR2)?
A: 1 to 100 µM

Q: For Cn1c(-c2ccc(NC(=O)CC#N)cc2)c(-c2ccc(C(=O)N3CCCC3)cc2)c2c(N)ncnc21 [Example 881], which IC50 (SNU-16; [1]) is on record?
A: 1 to 100 µM

Q: And the IC50 (FGFR2)?
A: 1 to 100 µM

Q: What does the source list for C=C(C)C(=O)Nc1ccc(-c2c(C3=C(F)C[C@H](C(=O)N4CCCC4)CC3)c3c(N)ncnc3n2C)cc1 [Example 882]?
A: IC50 (SNU-16; [1]): 1 to 100 µM; IC50 (FGFR2): 1 to 100 µM

Q: With C=CC(=O)N1CC(c2c(-c3ccc(C(=O)c4nccc(C)n4)cc3F)c3c(N)ncnc3n2C)C[C@@H]1C (stereo partly shown) [Example 885] as the compound, how does the IC50 (SNU-16; SNU-16 cells) read?
A: 1 to 100 µM

Q: What about the IC50 (FGFR2) of the same compound?
A: 1 to 100 µM

Q: C=CC(=O)N1CC(c2c(-c3ccc(C(=O)c4nccc(C)n4)cc3F)c3c(N)ncnc3n2C)C[C@@H]1C (stereo partly shown) [Example 886] was tested. Which IC50 (SNU-16; SNU-16 cells) did it give?
A: ≤ 0.1 µM

Q: What about the IC50 (FGFR2) of the same compound?
A: 0.25 to 1 µM

Q: Which results are given for C=CC(=O)N1CC(c2c(C3=CC[C@H](C(=O)N4CCCC4)CC3)c3c(N)ncnc3n2C)C[C@@H]1C (stereo partly shown) [Example 889]?
A: IC50 (SNU-16; [1]): 0.1 to 0.25 µM; IC50 (FGFR2): 0.25 to 1 µM

Q: For C=CC(=O)N1CC(c2c(C3=CC[C@@H](C(=O)N4CCCC4)CC3)c3c(N)ncnc3n2C)C[C@@H]1C (stereo partly shown) [Example 890], which IC50 (SNU-16; [1]) is on record?
A: 1 to 100 µM

Q: What about the IC50 (FGFR2) of the same compound?
A: 1 to 100 µM

Q: Which results are given for C=Cc1nc2cc(-c3c(-c4ccc(C(=O)N5CCCC5)cc4)c4c(N)ncnc4n3C)ccc2n1C [Example 893]?
A: IC50 (SNU-16; [1]): 1 to 100 µM; IC50 (FGFR2): 1 to 100 µM

Q: With C=Cc1nc2ccc(-c3c(-c4ccc(C(=O)N5CCCC5)cc4)c4c(N)ncnc4n3C)cc2n1C [Example 895] as the compound, how does the IC50 (SNU-16; [1]) read?
A: 1 to 100 µM

Q: What about the IC50 (FGFR2) of the same compound?
A: 1 to 100 µM

Q: Cc1ccnc(Oc2ccc(-c3c(-c4ccc(NC(=O)CCl)cc4)n(C)c4ncnc(N)c34)cc2)n1 [Example 897] was tested. Which IC50 (SNU-16; [1]) did it give?
A: ≤ 0.1 µM

Q: And the IC50 (FGFR2)?
A: 0.1 to 0.25 µM

Q: Which IC50 (SNU-16; [1]) does the source give for C=C(C)C(=O)Nc1ccc(-c2c(-n3ccc(C(=O)N4CCCC4)cc3=O)c3c(N)ncnc3n2C)cc1 [Example 898] here?
A: ≤ 0.1 µM

Q: And the IC50 (FGFR2)?
A: < 0.1 µM

Q: Cn1c(-c2ccc(NC(=O)C3CN3)cc2)c(-c2ccc(C(=O)N3CCCC3)cc2)c2c(N)ncnc21 (stereo not shown) [Example 901] was tested. Which IC50 (SNU-16; [1]) did it give?
A: 1 to 100 µM

Q: What about the IC50 (FGFR2) of the same compound?
A: 1 to 100 µM

Q: COC(=O)Nc1ccc(-c2c(-c3ccc(C(=O)N4CCCC4)cc3)c3c(N)ncnc3n2C)cc1 [Example 902] was tested. Which IC50 (SNU-16; [1]) did it give?
A: 1 to 100 µM

Q: And the IC50 (FGFR2)?
A: 1 to 100 µM

Q: For C=C(C)C(=O)N1CC(c2c(-c3ccc(C(=O)N4CCCC4)cc3)c3c(N)ncnc3n2C)=C[C@@H]1C [Example 903], which IC50 (SNU-16; [1]) is on record?
A: 1 to 100 µM

Q: What about the IC50 (FGFR2) of the same compound?
A: 1 to 100 µM

Q: How did the IC50 (SNU-16; [1]) turn out when Cc1ccnc(Oc2ccc(-c3c(-c4ccc(NC(=O)C5=CCOC5)cc4)n(C)c4ncnc(N)c34)cc2)n1 [Example 904] was run?
A: 1 to 100 µM

Q: What about the IC50 (FGFR2) of the same compound?
A: 1 to 100 µM

Q: For C=C(C)C(=O)Nc1ccc(-c2c(-c3ccc4c(c3)OCC4c3cccc(C)n3)c3c(N)ncnc3n2C)cc1 (stereo not shown) [Example 907], which IC50 (SNU-16; [1]) is on record?
A: ≤ 0.1 µM

Q: What about the IC50 (FGFR2) of the same compound?
A: < 0.1 µM

Q: Which results are given for C=C(C)C(=O)Nc1ccc(-c2c(-c3ccc(C(=O)NCC(C)C)c(OC)c3)c3c(N)ncnc3n2C)cc1 [Example 910]?
A: IC50 (SNU-16; [1]): 1 to 100 µM; IC50 (FGFR2): 1 to 100 µM

Q: How did the IC50 (SNU-16; [1]) turn out when C=C(C)C(=O)Nc1ccc(-c2c(-c3ccc(C(=O)NC4CCC4)c(OC)c3)c3c(N)ncnc3n2C)cc1 [Example 911] was run?
A: ≤ 0.1 µM

Q: And the IC50 (FGFR2)?
A: < 0.1 µM

Q: Which results are given for C=C(C)C(=O)Nc1ccc(-c2c(-c3ccc(C(=O)NC4CC(F)(F)C4)c(OC)c3)c3c(N)ncnc3n2C)cc1 [Example 912]?
A: IC50 (SNU-16; [1]): ≤ 0.1 µM; IC50 (FGFR2): < 0.1 µM
